Experimental data: patent US20180311238A1, “Selective Agonist Of a6 Containing nAChRs” (Saniona A/S, priority 2017, published 2018)

Experiments:
[1] = tested on: reserpine-induced tremors; test: Reserpine-induced tremors in rats (tremor monitor power spectra); assay type: in vivo, rat; conditions: reserpine 1 mg/kg i.v.; compound 0.1 and 1.0 mg/kg s.c.; L-DOPA 100 mg/kg i.p. + benserazide
From the text: Parkinson's disease is associated with severe dopamine deficiency caused by neurodegeneration of dopaminergic cell bodies residing in Substantia Nigra pars compacta. As alpha6 nAChRs are enriched in the nigrostriatal dopamine pathway, activating this receptor may ameliorate symptoms in nigro-striatal dopamine deficiency models. Reserpine injections to rodents result in depletion of monoamines in the nigro-striatal dopamine pathway, resulting in catalepsy and tremors. Both behaviours can be quantified using dedicated tremor boxes.
Six groups of male Sprague Dawley rats (250-300 grams) were subjected to the following treatment schedules, and effects on power spectra, assessed in automated tremor monitors were evaluated for 30 minutes: • Vehicle+vehicle • Vehicle+reserpine (1 mg/kg) • 9-Methyl-3-pyridin-3-yl-3,9-diaza-bicyclo[3.3.1]nonane (0.1 mg/kg)+reserpine (1 mg/kg) • 9-Methyl-3-pyridin-3-yl-3,9-diaza-bicyclo[3.3.1]nonane (1.0 mg/kg)+reserpine (1 mg/kg) • L-DOPA (100 mg/kg)+reserpine (1 mg/kg) • 9-Methyl-3-pyridin-3-yl-3,9-diaza-bicyclo[3.3.1]nonane (1.0 mg/kg)+L-DOPA (100 mg/kg)+reserpine (1 mg/kg)
Reserpine was pre-treated i.v. 60 minutes prior to test start in a dose volume of 2 ml/kg. 9-Methyl-3-pyridin-3-yl-3,9-diaza-bicyclo[3.3.1]nonane was pre-treated s.c. 45 minutes prior to test start in a dose volume of 1 ml/kg. The dose of 9-methyl-3-pyridin-3-yl-3,9-diaza-bicyclo[3.3.1]nonane was based on 3H-epibatidin displacement studies showing half maximal displacement of specific binding of 3H-epibatidin in doses equaling 0.15 mg/kg in rats. L-DOPA was pre-treated i.p. 30 minutes prior to test start in a dose volume of 5 ml/kg. […] All animals dosed with L-DOPA was also dosed with the peripherally acting decarboxylase inhibitor Benserazide to prevent the peripheral break down of L-DOPA (benserazide: 50 mg/kg, s.c., 30 min. prior to test start in a dose volume of 1 ml/kg).

[2] = molecular target: T1, (Homo sapiens, UniProt P30926+P32297); test: Oocyte two-electrode voltage-clamp electrophysiology, α3β4; assay type: cell-based; conditions: Xenopus laevis oocytes
T1 construct: expressed in transfected cells; host or cells: Xenopus laevis oocytes injected with cRNA
Protocol: (§1) Two-electrode voltage-clamp electrophysiology recordings were done in Xenopus laevis oocytes injected with approximately 25 ng cRNA. After injection, oocytes were incubated at 17° C. for 2-3 days. During measurements, an oocyte was placed in a custom designed recording chamber where compound solutions are added directly to the oocyte via a glass capillary. Compound solutions were prepared on the day of measurement and applied to oocytes with a flowrate of 2.0 ml/min. All datasets were baseline subtracted and responses to individual applications were read as peak current amplitudes. Concentration response relationships describing compound effect at a fixed acetylcholine concentration were fitted to a monophasic Hill-equation. Potency (EC50) and efficacy values (fitted maximal current relative to maximal current of acetylcholine).

[3] = tested on: α4β2 cHS/cLS receptors; test: Oocyte two-electrode voltage-clamp electrophysiology, α4β2; assay type: cell-based; conditions: Xenopus laevis oocytes
Protocol: as §1

[4] = molecular target: T2, α7 (Homo sapiens, UniProt P36544); test: Oocyte two-electrode voltage-clamp electrophysiology, α7; assay type: cell-based; conditions: Xenopus laevis oocytes, peak currents
T2 construct: expressed in transfected cells; host or cells: Xenopus laevis oocytes injected with cRNA
Protocol: as §1

[5] = tested on: primary dopaminergic neuronal culture; test: Primary dopaminergic neuronal culture injured by MPP+, number of TH positive neurons; assay type: cell-based, rat; conditions: MPP+ 4 μM, 48H; compound 1 nM to 1 μM added 1H before intoxication
From the text: Pregnant female Wistar rats of 15 days gestation was euthanized by cervical dislocation and the foetuses was removed from the uterus. Hereafter, the embryonic midbrains was removed and placed in ice-cold medium of Leibovitz containing 2% of Penicillin-Streptomycin and 1% of bovine serum albumin (BSA). Only the ventral portions of the mesencephalic flexure were used for the cell preparations as this is the region of the developing brain rich in dopaminergic neurons. The midbrains were dissociated by trypsinisation for 20 min at 37° C. (Trypsin EDTA 1X). The reaction was stopped by the addition of DULBECCO′S MODIFIED Eagle's medium (DMEM) containing DNAse I grade II (0.1 mg/ml) and 10% foetal calf serum (FCS). Cells were then mechanically dissociated by 3 passages through a 10 ml pipette. Cells was then centrifuged at 180×g for 10 min at 4° C. on a layer of BSA (3.5%) in L15 medium. The supernatant was discarded, and the cells of pellet were re-suspended in a defined culture medium consisting of Neurobasal supplemented with B27 (2%), L-glutamine (2 mM) and 2% of PS solution and 10 ng/ml BDNF and 1 ng/ml of Glial cell-derived neurotrophic factor (GDNF). Viable cells were counted in a Neunauer cytometer using the tryphan blue exclusion test. […]
Half of the medium was changed every 2 days with fresh medium. […] Following an additional 48H of incubation, the number of TH positive neurons were counted. […]

T1 sequence (P32297 32-505): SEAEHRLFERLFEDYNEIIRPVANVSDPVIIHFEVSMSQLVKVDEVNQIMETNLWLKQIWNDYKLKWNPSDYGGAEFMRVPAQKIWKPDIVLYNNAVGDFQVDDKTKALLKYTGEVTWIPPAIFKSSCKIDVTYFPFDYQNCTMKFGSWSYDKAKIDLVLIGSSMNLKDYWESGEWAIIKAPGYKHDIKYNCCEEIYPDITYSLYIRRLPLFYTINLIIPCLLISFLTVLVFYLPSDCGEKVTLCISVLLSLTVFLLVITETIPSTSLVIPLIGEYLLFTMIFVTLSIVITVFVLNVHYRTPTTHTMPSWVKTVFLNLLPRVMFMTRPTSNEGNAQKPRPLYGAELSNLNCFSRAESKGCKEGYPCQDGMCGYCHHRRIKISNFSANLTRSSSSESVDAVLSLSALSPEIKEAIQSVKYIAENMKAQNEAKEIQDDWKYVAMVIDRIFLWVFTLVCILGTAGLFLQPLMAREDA
T1 sequence (P30926 22-498): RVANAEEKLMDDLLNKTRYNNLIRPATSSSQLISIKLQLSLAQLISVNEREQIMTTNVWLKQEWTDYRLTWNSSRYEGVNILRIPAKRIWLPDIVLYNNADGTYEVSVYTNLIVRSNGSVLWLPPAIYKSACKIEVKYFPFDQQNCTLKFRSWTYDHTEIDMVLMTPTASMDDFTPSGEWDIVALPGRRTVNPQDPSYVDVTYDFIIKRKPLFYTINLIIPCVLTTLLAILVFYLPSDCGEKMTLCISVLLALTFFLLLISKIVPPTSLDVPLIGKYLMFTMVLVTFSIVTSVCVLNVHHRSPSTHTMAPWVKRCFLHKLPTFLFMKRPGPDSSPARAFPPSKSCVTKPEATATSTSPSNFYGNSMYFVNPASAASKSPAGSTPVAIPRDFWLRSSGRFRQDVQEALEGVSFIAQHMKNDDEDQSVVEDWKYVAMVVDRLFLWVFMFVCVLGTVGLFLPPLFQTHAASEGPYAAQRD
T2 sequence (P36544 23-502): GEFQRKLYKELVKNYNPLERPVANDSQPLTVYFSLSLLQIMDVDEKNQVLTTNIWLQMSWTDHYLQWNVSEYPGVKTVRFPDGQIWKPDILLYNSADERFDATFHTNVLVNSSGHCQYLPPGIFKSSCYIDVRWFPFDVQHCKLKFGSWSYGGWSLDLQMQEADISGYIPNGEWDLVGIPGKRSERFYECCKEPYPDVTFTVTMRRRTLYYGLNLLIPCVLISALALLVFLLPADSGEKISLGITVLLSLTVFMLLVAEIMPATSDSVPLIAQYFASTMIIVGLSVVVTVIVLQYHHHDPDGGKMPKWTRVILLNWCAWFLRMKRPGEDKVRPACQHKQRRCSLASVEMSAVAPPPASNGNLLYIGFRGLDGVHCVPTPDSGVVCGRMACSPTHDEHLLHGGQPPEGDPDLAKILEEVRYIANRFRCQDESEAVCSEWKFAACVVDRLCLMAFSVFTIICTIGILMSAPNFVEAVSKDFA

CN1C2CCCC1CN(c1cccnc1)C2 [9-methyl-3-pyridin-3-yl-3,9-diaza-bicyclo[3.3.1]nonane]
effect on reserpine-induced tremors, AUC 40-63 Hz [1]: dose-related reversal of reserpine tremors reaching statistical significance at 1.0 mg/kg
reversal of reserpine-induced reduction of low frequency movements (catalepsy), AUC 3-13 Hz [1]: Neither threshold dose of L-DOPA, nor 9-methyl-3-pyridin-3-yl-3,9-diaza-bicyclo[3.3.1]nonane or the combination of the two, was able to reverse this reduction
efficacy [2]: practically no efficacy
efficacy [3]: practically no efficacy
EC50 [4]: 13 µM
neuroprotective effect, number of TH positive neurons [5]: concentration-dependent neuroprotective effect
